Paper PMC8804135 (Neurotherapeutics, 2021)
Numbered stars: 1 amine (or outer) side, 2 acyl side, 3 side chain; on linkers, the order of the positions; unused ones are H or OH. Bridge positions count the residues as written; N and C are the ends. Square brackets hold non-standard residues; d marks the D form. Peptide text beside a SMILES is read from it. dAbu(3S-yl) = C[C@@H]([C@@H](N[*:1])C(=O)[*:2])[*:3]; pGlu = O=C1CC[C@@H](C(=O)O)N1

How the values were obtained:
[1] = target: T1, GAL1R (Homo sapiens, UniProt P47211); test: Label-free dynamic mass redistribution assay, SY5Y-R1 cells; format: cell-based; parameters: expressed in transfected cells; conditions: GAL1R-expressing SH-SY5Y cells; 1.6 nM to 5 µM
T1 sequence (P47211 1-349): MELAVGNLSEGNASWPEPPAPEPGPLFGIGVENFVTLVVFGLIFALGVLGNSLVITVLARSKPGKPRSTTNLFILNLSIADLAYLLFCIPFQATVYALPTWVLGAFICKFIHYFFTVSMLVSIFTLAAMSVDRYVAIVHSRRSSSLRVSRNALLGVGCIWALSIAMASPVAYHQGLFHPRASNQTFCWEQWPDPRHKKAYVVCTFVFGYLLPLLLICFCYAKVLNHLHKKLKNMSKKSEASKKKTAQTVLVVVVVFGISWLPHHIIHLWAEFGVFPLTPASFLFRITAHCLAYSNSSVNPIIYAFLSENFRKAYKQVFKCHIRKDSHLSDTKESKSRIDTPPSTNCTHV
Description: SH-SY5Y cells stably expressing low levels of either human GAL1R (SY5Y-R1) or GAL2R (SY5Y-R2) and HEK293 cells expressing human GAL3R (HEK-R3) were seeded in EnSpire LFC-[…] well plates (Perkin Elmer) at a concentration of 12,000 cells per well and cultured overnight at 37 °C and 5% CO2. The medium was aspired, and the cells were washed four times with Hank’s balanced salt solution (HBSS) (+ calcium, + magnesium) supplemented with HEPES (20 mM), and the final volume was adjusted to 30 µl per well. The plate was allowed to equilibrate to assay temperature for 1 h in the EnSpire multimode reader (Perkin Elmer). Galanin-(1–30) (GL Biochem) was dissolved and diluted in water. […] A baseline read was first generated by taking 4 measurements before ligands were added. The plate was measured between 30 and 70 repeats, and each treatment was performed in triplicate. […] EC50 values were calculated using Prism 8.2.0 (GraphPad Software Inc.). The values are provided as means of all independent experiments.

[2] = target: T2, GAL3R (Homo sapiens, UniProt O60755); test: SRE luciferase reporter assay, GAL3R-transfected HEK293 Gqi cells; conditions: transiently transfected HEK293 Gqi cells; up to 10 µM, 5 h
T2 sequence (O60755 1-368): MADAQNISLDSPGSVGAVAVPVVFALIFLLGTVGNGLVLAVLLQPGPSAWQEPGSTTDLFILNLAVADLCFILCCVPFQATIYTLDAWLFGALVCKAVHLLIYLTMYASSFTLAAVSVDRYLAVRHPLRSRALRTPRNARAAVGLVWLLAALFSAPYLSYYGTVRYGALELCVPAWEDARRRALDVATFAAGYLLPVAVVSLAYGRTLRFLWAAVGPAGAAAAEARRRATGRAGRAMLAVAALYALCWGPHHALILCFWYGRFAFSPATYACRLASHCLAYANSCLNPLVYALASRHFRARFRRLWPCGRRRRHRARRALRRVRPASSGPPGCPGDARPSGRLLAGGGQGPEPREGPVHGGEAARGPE

[3] = Hydrophobicity and solubility of the peptide for intranasal formulation; format: physicochemical; conditions: in 10% (2-hydroxypropyl)-ß-cyclodextrin (HBC)
Description: For intranasal delivery, 1 mg of M89b was first dissolved in 566 µl 2,2,2-trifluorethanol, 566 µl 10% (2-hydroxypropyl)-ß-cyclodextrin (HBC), and 1 µl acetic acid and incubated at 60 °C for 20 min. Another 566 µl of 10% HBC were added. The peptide was then dried in a speed-vac, and the dried pellet was dissolved in 1132 µl water by vortexing and incubation at 60 °C. M871 and GALP were purchased from GL Biochem. M871 was dissolved in saline containing 10% HBC. GALP was dissolved in saline containing 5% α-cyclodextrin.

[4] = In vitro stability in rat serum; format: in vitro ADME; conditions: rat, serum, pH 7.4
Description: At various time points (0, 30, 90, 270, and 1410 min), 180 µl of samples were quenched with 10 µl 10% TFA and 20 µl 100% ACN. Samples were centrifuged and kept on ice. The amount of full-length peptides in the serum was analyzed using a C12 column (C12 RP 250 × 4.60 mm column, Phenomenex) on a JASCO HPLC system and applying a gradient of 10–90% ACN in 0.1% TFA for 45 min. Peptides were detected at 280 nm. A280 areas in chromatograms of the corresponding GAL-(1–15) and M89b full-length peptide peaks were used to determine the amount of peptide left after incubation with 5% rat serum at the different time points. Peptide peaks were determined using JASCO-Borwin Chromatography software (v1.50).

[5] = target: T3, GAL2R (Homo sapiens, UniProt O43603); test: Fluo-4 Direct calcium assay (Ca efflux) in HEK293 cells overexpressing GAL2R; format: cell-based; conditions: Table 3; HEK293 cells stably overexpressing GAL2R; Fluo-4, from 10 µM; (average) ratio, (n) in cell = number of assays; NA = ratio above 1000
T3 sequence (O43603 1-387): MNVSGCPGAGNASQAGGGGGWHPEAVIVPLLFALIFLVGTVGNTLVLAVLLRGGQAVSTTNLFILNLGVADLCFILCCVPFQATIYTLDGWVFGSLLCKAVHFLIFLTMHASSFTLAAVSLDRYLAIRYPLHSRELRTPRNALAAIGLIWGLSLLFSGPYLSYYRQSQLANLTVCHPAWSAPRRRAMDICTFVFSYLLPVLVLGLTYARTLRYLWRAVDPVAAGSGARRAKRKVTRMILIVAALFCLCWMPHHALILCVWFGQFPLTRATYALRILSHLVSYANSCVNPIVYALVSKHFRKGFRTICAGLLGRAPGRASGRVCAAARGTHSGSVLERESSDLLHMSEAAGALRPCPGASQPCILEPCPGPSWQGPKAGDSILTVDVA
Description: Calcium efflux was measured by using a Fluo-4 Direct Calcium Assay purchased from Thermo Fisher Scientific. HEK293 cells with stable overexpression of GAL2R (HEKR2) (kindly provided by Harald Dargatz, Molecular, Cellular and Pharmacobiology Section, Institute of Pharmaceutical Biology, University of Bonn, 53,115 Bonn, Germany) were used for analysis of the lanthipeptides. HEKR2 cells were seeded in a 96-well plate and grown overnight in DMEM supplemented with 10% FBS, 1% penicillin–streptomycin, 100 µg/ml Normocin, and 500 µg/ml G418 at 37 °C, 5% CO2 in a humidified incubator.
The next day, when the cells were nearly confluent, an equal amount of 2 × Fluo-4 Direct™ calcium reagent loading solution, containing 5 mM probenecid, was added to the wells, and the plate was incubated for 1 h at 37 °C. A serial 3 × dilution of the agonist compound in water was made, and 10 µl of the serial dilutions was applied to the cells in duplicate. The starting concentration of agonist in the assay was 10 µM. After 1–2 h of incubation at room temperature, the fluorescence was measured with excitation at 485/20 nm and emission at 528/20 nm with a Synergy HT Biotek reader.

Stimulation of GAL1R, DMR in SY5YR1 cells [1]: stimulate GAL2R only, not GAL1R
Stimulation of GAL3R, luciferase reporter [2]: inability to stimulate
Solubility [3]: improved solubility
half-life at 10 µM [4]: > 24 h
metabolised at 23.5 h, 10 µM [4]: 40%
remaining at 23.5 h, 10 µM [4]: ~60%
EC50 ratios to Gal-(1-15), GAL2R Ca-efflux [5]: 1.4 (3)
Structure (SMILES): CC(C)C[C@H](NC(=O)[C@H](CC(C)C)NC(=O)[C@H](Cc1ccc(O)cc1)NC(=O)CNC(=O)[C@H](C)NC(=O)[C@H](C)NC(=O)[C@H](CC(N)=O)NC(=O)[C@H](CC(C)C)NC(=O)[C@H](CC(N)=O)NC(=O)[C@H](Cc1c[nH]c2ccccc12)NC(=O)[C@@H]1CCC(=O)N1)C(=O)N[C@@H](C)C(=O)N[C@H]1C(=O)N[C@@H](Cc2c[nH]cn2)C(=O)N[C@@H](C)C(=O)N[C@H](C(=O)NCC(=O)O)CS[C@H]1C [Variant M89b, G1pE-T3N-S6A-G12A-methyllanthionine[13–16]-galanin-(1–17)] ([pGlu]WNLNAAGYLLA[dAbu(3S-yl)]HACG-OH; thioether 13-16; C-terminus assumed)
